Measurements reported in PMC9413440, “An Iterative Approach Guides Discovery of the FabI Inhibitor Fabimycin, a Late-Stage Antibiotic Candidate with In Vivo Efficacy against Drug-Resistant Gram-Negative Infections” (ACS Central Science, 2022).
Values after ≈ are worked out from the molar mass of the structure shown.

How the values were obtained:
A. baumannii AR-0313 = assay: MIC, broth microdilution (CLSI); format: cell-based; conditions: Acinetobacter baumannii, AR0313; A. baumannii AR-0313 clinical isolate; † = dose-independent trailing growth
Method: (§1) II. Materials and Methods for Biological Experiments
(§2) S. aureus ATCC 29213 and E. coli MG1655 were obtained from the American Type Culture Collection (ATCC). E. coli BW25113 and E. coli JW5503 were obtained from the Keio Collection. AR-bank strains were obtained from the Centers for Disease Control and Prevention and FDA Antibiotic Resistance Isolate Bank.
(§3) Antimicrobial susceptibility tests
(§4) Susceptibility testing was performed in biological triplicate, unless noted otherwise, using the micro-dilution broth method as outlined by the Clinical and Laboratory Standards Institute. Bacteria were cultured with cation-adjusted Mueller Hinton broth (Sigma Aldrich, catalogue number: 90922). […]
(§5) Error bars represent the standard error of the mean of three biological replicates. All compounds evaluated in biological assays were ≥95% pure.

K. pneumoniae AR-0113 = assay: MIC, broth microdilution (CLSI); format: cell-based; conditions: Klebsiella pneumoniae, AR0113; K. pneumoniae AR-0113 clinical isolate
Method: as §1, §2, §3, §4, §5

K. pneumoniae AR-0560 = assay: MIC, broth microdilution (CLSI); format: cell-based; conditions: Klebsiella pneumoniae, AR0560; K. pneumoniae AR-0560 clinical isolate
Method: as §1, §2, §3, §4
(§6) NH3: m/z 391.2 → 171.0. Fabimycin: m/z 405.3 → 145.3. Power analysis was not used to determine the number of replicates. Error bars represent the standard error of the mean of three biological replicates. All compounds evaluated in biological assays were ≥95% pure.

A. baumannii AR-0033 = assay: MIC, broth microdilution (CLSI); format: cell-based; conditions: Acinetobacter baumannii, AR0033; A. baumannii AR-0033 clinical isolate; † = dose-independent trailing growth
Method: as §1, §2, §3, §4, §6

E. coli AR-0048 = assay: MIC, broth microdilution (CLSI); format: cell-based; conditions: Escherichia coli, AR0048; E. coli AR-0048 clinical isolate
Method: as §1, §2, §3, §4, §6

A. baumannii AR-0273 = assay: MIC, broth microdilution (CLSI); format: cell-based; conditions: Acinetobacter baumannii, AR0273; A. baumannii AR-0273 clinical isolate
Method: as §1, §2, §3, §4, §6

K. pneumoniae AR-0066 = assay: MIC, broth microdilution (CLSI); format: cell-based; conditions: Klebsiella pneumoniae, AR0066; K. pneumoniae AR-0066 clinical isolate
Method: as §1, §2, §3, §4, §6

A. baumannii AR-0299 = assay: MIC, broth microdilution (CLSI); format: cell-based; conditions: Acinetobacter baumannii, AR0299; A. baumannii AR-0299 clinical isolate; † = dose-independent trailing growth
Method: as §1, §2, §3, §4, §6

K. pneumoniae BAA-2472 = assay: MIC, broth microdilution (CLSI); format: cell-based; conditions: Klebsiella pneumoniae, BAA2472
Method: as §1, §2, §3, §4, §6

E. coli AR-0085 = assay: MIC, broth microdilution (CLSI); format: cell-based; conditions: Escherichia coli, AR0085; E. coli AR-0085 clinical isolate
Method: as §1, §2, §3, §4, §6

E. coli MG1655 [1] = system: E. coli MG1655; design: method as in PMID 31740764; conditions: cited from earlier work
E. coli FabI = biological target: T1, E. coli FabI (Escherichia coli, UniProt P0AEK4); assay: In vitro FabI enzymatic inhibition assay; format: biochemical; conditions: EcFabI; Morrison's quadratic fit; 5 nM enzyme; read-out: Ki app
T1 construct: His(6) with TEV site (cleaved yes); made in house; host or cells: E. coli BL21(DE3)
T1 sequence (P0AEK4 whole entry): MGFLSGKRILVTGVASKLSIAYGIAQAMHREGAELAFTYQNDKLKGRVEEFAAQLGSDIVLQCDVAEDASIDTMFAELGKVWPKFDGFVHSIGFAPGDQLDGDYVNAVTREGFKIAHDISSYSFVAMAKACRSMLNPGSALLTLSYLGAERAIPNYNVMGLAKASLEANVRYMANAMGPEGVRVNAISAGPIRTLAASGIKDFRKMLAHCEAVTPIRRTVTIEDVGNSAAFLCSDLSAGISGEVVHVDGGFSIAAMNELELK
Method: (§7) supplemented with 100 µg/mL ampicillin at 37°C until OD600 reached 0.6-0.7. The cells were induced with 1mM IPTG and incubated for 20 hours at 18°C and spun down at 8000 rpm for 15 minutes. Cell pellet was resuspended in the lysis buffer (50 mM Tris-HCl pH 8.0, 500 mM Na Cl, 20 mM imidazole, 10% glycerol, 0.5 mM TCEP, protease inhibitor and Lysonase) and passed through microfluidizer followed by centrifugation and filtration to remove cell debris. The clarified lysate was supplemented with 20 mM imidazole and passed over a HisTrap column (Cytiva) pre-equilibrated with the wash buffer (50 mM Tris-HCl pH 8.0, 500 mM NaCl, 20 mM imidazole, 10% glycerol, 0.5 mM TCEP). The column was washed with the wash buffer and eluted over a 20-500 mM imidazole gradient. The appropriate fractions were pooled, and the histidine tag was removed by TEV cleavage. The protein mixture was passed over a HisTrap column to separate the cleaved protein from the uncleaved ones. The cleaved protein was pooled and passed over an S75 size exclusion column (GE LifeSciences) pre-equilibrated with 50 mM Tris-HCl pH 8.0, 500 mM NaCl, 0.5 mM TCEP and 10% glycerol. Fractions containing pure protein were pooled, concentrated at 10 mg/mL and stored at -80°C. […]
(§8) In vitro FabI enzymatic inhibition assay
(§9) Recombinant E. coli and A. baummani FabI enzymes were used in a continuous NADH absorbance assay (20 µL in 384w format). Compounds and the Crotonyl-CoA substrate (Sigma–Aldrich 28007) were dispensed into a plate (GeinerBio-One 781101). The reaction was initiated by the addition of a reaction master mix solution containing enzyme and NADH (Sigma–Aldrich N8129) suspended in reaction buffer (50 mM HEPES pH 7.4, 150 mM NaCl, 1 mM EDTA, 0.01 mg/mL BSA, 0.01% Tween). Final concentrations were 5 nM enzyme, 150 μM Crotonyl-CoA, 380 μM NADH, 0.05% DMSO in 1x reaction buffer. After shaking for 5 seconds the reaction was monitored at NADH absorbance (340nm, 25°C) using a Molecular Devices SpectraMax M5 microplate reader. The linear portion of the progress curve was fit using plate-reader software. Percentage activity was calculated relative to DMSO only and no-substrate controls in each plate and the data were fit to Morrison’s quadratic using Graphpad Prism 9.3 to obtain apparent inhibition constant (Ki app) values. […]
(§10) 480 Real-Time PCR System as a function of a temperature ramp (25-95°C; 0.1°/s) and the Tm was calculated using the […]

A. baumannii FabI = A. baumannii FabI (Acinetobacter baumannii, UniProt D0CAD5); assay: In vitro FabI enzymatic inhibition assay; format: biochemical; conditions: AbFabI; Morrison's quadratic fit; 5 nM enzyme; read-out: Ki app
A. baumannii FabI, sequence (D0CAD5 entry or part of it): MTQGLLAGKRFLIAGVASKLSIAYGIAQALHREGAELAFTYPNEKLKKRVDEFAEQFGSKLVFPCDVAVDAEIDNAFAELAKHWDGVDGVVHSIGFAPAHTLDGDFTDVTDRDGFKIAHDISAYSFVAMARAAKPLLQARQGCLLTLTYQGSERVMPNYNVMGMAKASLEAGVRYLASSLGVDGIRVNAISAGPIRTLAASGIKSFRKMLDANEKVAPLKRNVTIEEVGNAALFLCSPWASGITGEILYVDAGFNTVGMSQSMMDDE
Method: as §7, §8, §9, §10

E. coli ΔtolC (JW5503) = assay: MIC, broth microdilution (CLSI); format: cell-based, Escherichia coli
Method: as §1, §2, §3, §4, §6

E. coli MG1655 [2] = assay: MIC, broth microdilution (CLSI); format: cell-based; conditions: Escherichia coli
Method: as §1, §2, §3, §4, §6

S. aureus ATCC 29213 = assay: MIC, broth microdilution (CLSI); format: cell-based; conditions: Staphylococcus aureus, ATCC29213; S. aureus 29213
Method: as §1, §2, §3, §4, §6

[3] = system: K. pneumoniae clinical isolates (n=100); assay: MIC50/MIC90, clinical isolate panel; format: cell-based; conditions: Klebsiella pneumoniae; K. pneumoniae (n=100) clinical isolates
Source text: Figure 4 Antimicrobial activity of fabimycin against clinical isolates. (A) The susceptibility of clinical isolates (Gram-negative species and S. aureus) to fabimycin, Debio-1452-NH3, and Debio-1452. MICs performed in biological triplicate. (B) Further exploration of the breadth of fabimycin’s antibacterial activity against diverse clinical isolate panels of K. pneumoniae and A. baumannii, as compared to levofloxacin. MICs performed in biological duplicate.
as §1, §2, §3, §4, §5

[4] = system: A. baumannii clinical isolates (n=100); assay: MIC50/MIC90, clinical isolate panel; format: cell-based; conditions: Acinetobacter baumannii; A. baumannii (n=100) clinical isolates

SMILES	MIC (A. baumannii AR-0313) [µg/mL]	MIC (K. pneumoniae AR-0113) [µg/mL]	MIC (K. pneumoniae AR-0560) [µg/mL]	MIC (A. baumannii AR-0033) [µg/mL]	MIC (E. coli AR-0048) [µg/mL]	MIC (A. baumannii AR-0273) [µg/mL]	MIC (K. pneumoniae AR-0066) [µg/mL]	MIC (A. baumannii AR-0299) [µg/mL]	MIC (K. pneumoniae BAA-2472) [µg/mL]	MIC (E. coli AR-0085) [µg/mL]	MIC (E. coli MG1655 [2]) [µg/mL]	MIC (S. aureus ATCC 29213) [µg/mL]	MIC (E. coli ΔtolC (JW5503); Escherichia coli) [µg/mL]	also measured
Cc1c(CN(C)C(=O)/C=C/c2cnc3c(c2)CCC(=O)N3)oc2ccccc12 [Debio-1452, reference compound]	> 32	> 32	> 32	> 32	> 32	> 32	> 32	> 32	> 32	> 32	–	–	–	accumulation in Gram-negative bacteria (class in Figure 1A) (E. coli MG1655 [1]): Non-accumulator; Ki (E. coli FabI): 97 ± 19 nM; Ki (A. baumannii FabI): 431 ± 85 nM; MIC (E. coli ΔtolC (JW5503); E. coli ΔtolC = JW5503, efflux-deficient): 0.062 µg/mL (≈ 0.165 µM)
Cc1c(CN(C)C(=O)/C=C/c2cnc3c(c2)CC2(CCC(N)CC2)C(=O)N3)oc2ccccc12 (racemic) [(±)-5]	–	–	–	–	–	–	–	–	–	–	16 (≈ 34.9 µM)	0.016 (≈ 0.0349 µM)	0.062 (≈ 0.135 µM)	–
Cc1c(CN(C)C(=O)/C=C/c2cnc3c(c2)CCC(CCN)C(=O)N3)oc2ccccc12 (racemic) [(±)-9]	–	–	–	–	–	–	–	–	–	–	32 (≈ 74 µM)	0.062 (≈ 0.143 µM)	0.125 (≈ 0.289 µM)	–
C[C@H]1COc2c(N3CCN(C)CC3)c(F)cc3c(=O)c(C(=O)O)cn1c23 [levofloxacin, reference compound]	–	–	–	–	–	–	–	–	–	–	–	–	–	MIC50 [3]: 0.5 µg/mL (≈ 1.38 µM); MIC90 [3]: 32 µg/mL (≈ 88.6 µM); MIC50 [4]: 4 µg/mL (≈ 11.1 µM); MIC90 [4]: 32 µg/mL (≈ 88.6 µM)
Cc1c(CN(C)C(=O)/C=C/c2cnc3c(c2)CC2(CC(CN)C2)C(=O)N3)oc2ccccc12 (racemic) [(±)-4]	–	–	–	–	–	–	–	–	–	–	16 (≈ 36 µM)	0.031 (≈ 0.0697 µM)	0.125 (≈ 0.281 µM)	–
Cc1c(CN(C)C(=O)/C=C/c2cnc3c(c2)CCC(CN)C(=O)N3)oc2ccccc12 (racemic) [(±)-8]	> 32	32 (≈ 76.5 µM)	16 (≈ 38.2 µM)	16 (≈ 38.2 µM)	16 (≈ 38.2 µM)	32 (≈ 76.5 µM)	32 (≈ 76.5 µM)	32 (≈ 76.5 µM)	32 (≈ 76.5 µM)	8 (≈ 19.1 µM)	8 (≈ 19.1 µM)	0.031 (≈ 0.0741 µM)	0.125 (≈ 0.299 µM)	–
